Measured values as given in patent US7078407B2, “4-hydroxycinnamamide derivatives as antioxidants and pharmaceutical compositions containing them” (Korea Research Institute of Chemical Technology, priority 2001, dated 2006).
pIC50: −log10 of the molar value.

Tests used:
[1] = test system: lipid peroxidation in brain homogeneous substance; assay: Antioxidation activation test: lipid peroxidation assay (TBARS/MDA) in brain homogenate with FeCl2/ascorbic acid; type: biochemical, SD rat; conditions: for pIC50: 50% inhibitory concentration of lipid peroxidation (TBARS at 520 nm), rat brain homogenate, FeCl2/ascorbic acid; for antioxidation activity increased compared with the prior antioxidation activator BHT: relative to BHT IC50 of Table 4
Experimental: After decapitating a SD rat (male, 10–12 weeks old) and rapidly extracting the brain, 10 mM Tris-HCl buffer solution (pH 7.4) containing 150 mM KCl is added to 10 ml/brain and homogenated. Then, the homogenated brain mixture is centrifuged for 10 minutes at 2,200 rpm, 4° C., and the upper layer is collected through protein assay. The exact amount of protein is measured and kept at −20° C.
250 μl of brain homogeneous substance (5 mg protein/ml), 10 μl of sample substance, 20 μl of buffer solution is divided at the 96-well micro plate one by one, and cultured for 20 minutes at 37° C. under a shaking condition. Then, 10 μl of 20 μM FeCl2 and 250 μM ascorbic acid is respectively added to the mixture and cultured for 30 minutes at 37° C. After completing the reaction by adding 50 μl of 35% HClO4 to the mixture, the micro plate is centrifuged for 10 minutes at 2,000 rpm, 4° C., and only the upper layer is transferred to the 96-well micro plate in an amount of 240 μl, and then, 120 μl of TBA (thiabarbituric acid; 5 mg/ml in 50% acetic acid) is added to the mixture. After reacting the micro plate for an hour at 80° C., it is cooled at room temperature, and the optical density of the thus obtained TBARS (thiobarbituric acid reactive substances, MDA) is measured at 520 nm.
The assay response curve of TBARS obtained using tetraethoxypropane, a reaction substance of TBA is used in calculating the amount of reaction product MDA of the sample substance, and the oxidation inhibition effect of the test drug is obtained by the following equation 1. Further, the 50% inhibitory concentration (IC50) is obtained using the dose response curve.
wherein, A is the concentration (nmol) of the control protein (MDA/mg), and
B is the concentration (nmol) of the experiment protein (MDA/mg).

SMILES	pIC50 [1]	antioxidation activity increased compared with the prior antioxidation activator BHT [1]	melting point
CCCCOc1cc(CCC(=O)N2CCN(CC(O)c3ccc(Cl)cc3)CC2)cc(OCCCC)c1O (stereo not shown) [Example 15, 1-{4-[2-(4-chlorophenyl)-2-hydroxyethyl]piperazine-1-yl}-3-(3,5-dibutoxy-4-hydroxyphenyl)propane-1-one]	6.04	56%	
CCCCCCOc1cc(/C=C/C(=O)Nc2ccccc2O)cc(OCCCCCC)c1O [Example 6, 3-(3,5-bishexyloxy-4-hydroxyphenyl)-N-(2-hydroxyphenyl)acrylamide]			137 to 140 °C
CC(C)(C)c1cc(/C=C/C(=O)N2CCN(c3ccc(NC(=N)c4cccs4)cc3)CC2)cc(C(C)(C)C)c1O [Example 16, N-(4-(4-[3-(3,5-di-t-butyl-4-hydroxy-phenyl)-acryloyl]-piperizine-lyl}-phenyl)-thiophene-2-carboxamidine]	6.29		
CCCCCCCCCOc1cc(CN2CCN(CC(O)c3ccc(Cl)cc3)CC2)cc(OCCCCCCCCC)c1O (stereo not shown) [Example 8, 4-{4-[2-(4-chlorophenyl)-2-hydroethyl]piperazine-1-ylmethyl}-2,6-bis-nonyloxyphenol]	5.82	27%	
CCCCCCOc1cc(C=CC(=O)N2CCN(CC(O)c3ccc(F)cc3)CC2)cc(OCCCCCC)c1O (stereo not shown) [Example 12, 3-(3,5-bis-hexyloxy-4-hydroxyphenyl)-1-{4-[2-(4-fluorophenyl)-2-hydroxyethyl]piperazine-1-yl}propenone]	6.59	88%	
CCCCOc1cc(/C=C/C(=O)N2CCN(c3ccc(NC(=N)c4ccc[nH]4)cc3)CC2)cc(OCCCC)c1O [Example 22, N-(4-{4-[3-(3,5-dibutoxy-4-hydroxy-phenyl)-acryloyl]-piperazine-1-yl}-phenyl)-1H-pyrrole-2-carboxamidine]	6.43	82%	
CCCOc1cc(/C=C/C(=O)N2CCN(c3ccc(NC(=N)c4cccs4)cc3)CC2)cc(OCCC)c1O [Example 18, N-(4-{4-[3-(4-hydroxy-3,5-dipropoxy-phenyl)-acryloyl]-piperazine-1-yl}-phenyl)-thiophene-2-carboxamidine]	6.31		
CC(C)(C)c1cc(/C=C/C(=O)N2CCN(c3ccc(NC(=N)c4ccc[nH]4)cc3)CC2)cc(C(C)(C)C)c1O [Example 21, N-(4-{4-[3-(3,5-di-t-butyl-4-hydroxy-phenyl)-acryloyl]-piperazine-1-yl}-phenyl)-1H-pyrrole-2-carboxamidine]			149 to 167 °C
CCC(CC)Oc1cc(/C=C/C(=O)NCc2cc(C(C)(C)C)c(O)c(C(C)(C)C)c2)cc(OC(CC)CC)c1O [Example 4, 3-[3,5-bis-(1-ethylpropoxy)-4-hydroxyphenyl]-N-(3,5-di-t-butyl-4-hydroxybenzyl)acrylamide]			75 to 80 °C
CCCCCOc1cc(/C=C/C(=O)N2CCN(c3ccc(NC(=N)c4ccc[nH]4)cc3)CC2)cc(OCCCCC)c1O [Example 23, N-(4-{4-[3-(4-hydroxy-3,5-bis-penyloxy-phenyl)-acryloyl]-piperazine-1-yl}-phenyl)-1H-pyrrole-2-carboxamidine]	6.35		109 to 116 °C
CCC(CC)Oc1cc(/C=C/C(=O)N2CCN(c3ccc(NC(=N)c4cccs4)cc3)CC2)cc(OC(CC)CC)c1O [Example 17]	6.33		170 to 171 °C
CCCCCCCOc1cc(/C=C/C(=O)N2CCN(c3ccc(NC(=N)c4ccc[nH]4)cc3)CC2)cc(OCCCCCCC)c1O [Example 24, N-(4-{4-[3-(3,5-bis-heptyloxy-4-hydroxy-phenyl)-acryloyl]-piperazine-1-yl}-phenyl)-1H-pyrrole-2-carboxamidine]			100 to 145 °C
Cc1cc(C(C)(C)C)c(O)c(C(C)(C)C)c1 [BHT, tert-butyl-hydroxytoluene, reference compound]	5.68		
CCCCOc1cc(/C=C/C(=O)NCCc2cc(C(C)(C)C)c(O)c(C(C)(C)C)c2)cc(OCCCC)c1O [Example 1, 3-(3,5-dibutoxy-4-hydroxyphenyl)-N-[2-(3,5-di-t-butyl-4-hydroxyphenyl)ethyl]acrylamide]			82 to 85 °C
CCCCOc1cc(/C=C/C(=O)N2CCN(c3ccc(NC(=N)c4cccs4)cc3)CC2)cc(OCCCC)c1O [Example 19, N-(4-{4-[3-(3,5-dibutoxy-4-hydroxy-phenyl)-acryloyl]-piperazine-1-yl}-phenyl)-thiophene-2-carboxamidine]		82%	99 to 102 °C
